Experiments:
[1] = tested on: C4-2 PSMA positive human prostate cells xenografts; assay: Comparative therapy experiment in nude mice with C4-2 xenografts; format: in vivo; details: 52 MBq ^177Lu-PSMA-617 or 320 kBq ^212Pb-ligand 1
Experimental: Male nude mice were inoculated in the flanks with C4-2 PSMA positive human prostate cells and 2 weeks later when tumors were 5-7 mm in diameters. Groups of 8 animals each received saline, 52 MBq of ^177Lu-PSMA-617 or 320 kBq of ^212Pb-p-SCN-Bn-TCMC-PSMA ligand 1. Animals were sacrificed when tumor size reached 20 mm due to animal welfare requirements. […] For ^212Pb the effective half-life was assumed to be 10.6 h, 10% of injected dose per gram decays in tumor and 100% of radiation in a tumor is absorbed in the tumor, 100% retention of ^212Pb and daughters in the tumors and 8 MeV radiation energy per decay. The tumor dosimetry for the injected activities gave on average 35.9 Gy to tumors for ^177Lu-PSMA-617 and 2.06 Gy to tumors for ^212Pb-p-SCN-Bn-TCMC-PSMA ligand 1 groups respectively.

[2] = Radiolytic stability: TLC measured RCP when kept in ^224Ra solution; format: physicochemical
Experimental: Thin layer chromatography (TLC) was performed using chromatography strips (model #150-772, Biodex Medical Systems Inc, Shirley, N.Y., USA). A formulation buffer (FB) consisting of 7.5% human serum albumin and 5 mM EDTA in DPBS and adjusted to approximately pH 7 with NaOH was mixed with the antibody conjugates in ratio 2:1 for at least 5 minutes before application to the strips to determine free radionuclide. A small beaker with about 0.5 ml of 0.9% NaCl was used to place strips with a sample spot in. To the strip was typically added 1-4 μl of sample at approximately 10% above the bottom of the strip. After the solvent front had moved to about 20% from the top of the strip, the strip was cut in half and each half was placed in a 5 ml test tube for counting. In this system radiolabeled ligand stays at the bottom half while radionuclide complexed with EDTA migrates to the upper half. It was verified that free cations of both ^212Pb and ^177Lu would complex with EDTA and moved to the top.
(§1) Initial activity in the solution was about 5 MBq/ml causing an absorbed radiation dose to the solution of about 1.8 Gy after 24 h and 3.3 Gy after 48 hours. The data (Table 2) indicate a slight decline at the longest exposure time but in general a relatively strong radiolytic resistance of the ligand was observed, which is compatible with centralized production and shipment to the end user ^224Ra-based generator solution with or without removal of ^224Ra prior to the administration of product.

C4-2 cells = assay: Radiolytic stability: cell binding fraction after storage in ^224Ra solution; design: species or system human
Experimental: as §1

[3] = tested on: C4-2 PSMA-positive xenografts; assay: Biodistribution of radiolabelled ligands (^224Ra/^212Pb solutions, ^177Lu) in nude mice with C4-2 xenografts
Experimental: Each group usually consisted of three mice. […] Approximately 16 kBq of ^224Ra/^212Pb was injected in each animal, i.e., approximately 0.2 nmol of ligand per mouse. Animals were given anaesthesia and sacrificed by cervical dislocation followed by dissection and harvesting of tissue-, blood- and urine samples. The samples were weighed and counted on a gamma counter.
Three mice in each group. […] The molar concentration was the same for both products, i.e., 12.5 nmol per MBq. Approximately 16 kBq of ^224Ra/^212Pb was injected in each animal, i.e., approximately 0.2 nmol of ligand per mouse. Animals were given anaesthesia and sacrificed by cervical dislocation followed by dissection and harvesting of tissue-, blood- and urine samples. The samples were weighed and counted on a gamma counter.
Methods: Tumor and kidney uptake of ^212Pb-labeled p-SCN-Bn-TCMC-PSMA ligand 1 and ^177Lu-labeled PSMA-617 was compared at 1 hours and 4 hours after administration of the products by intravenous injection into nude mice with C4-2 xenografts as described in Example 9.

[4] = 4 h after i.v. injection, ^224Ra/^212Pb solution

Structure (SMILES): NC(=O)CN1CCN(CC(N)=O)CCN(CC(N)=O)C(Cc2ccc(NC(=S)NCC3CCC(C(=O)NC(Cc4ccc5ccccc5c4)C(=O)NCCCCC(NC(=O)NC(CCC(=O)O)C(=O)O)C(=O)O)CC3)cc2)CN(CC(N)=O)CC1.[212Pb+2] (stereo not shown) [^212Pb-p-SCN-Bn-TCMC-PSMA ligand 1]
- Survival at day 30 after treatment ([1]; groups of 8, saline group 0%): 75%
- Median survival ([1]; saline group 15 days): > 30 days
- TLC measured RCP ([2]; kept in ^224Ra solution 0.5 h): 93.81%
- TLC measured RCP ([2]; kept in ^224Ra solution 1 h): 92.84%
- TLC measured RCP ([2]; kept in ^224Ra solution 4 h): 94.75%
- TLC measured RCP ([2]; kept in ^224Ra solution 24 h): 94.85%
- TLC measured RCP ([2]; kept in ^224Ra solution 48 h): 94.85%
- Cell binding fraction (C4-2 cells; kept in ^224Ra solution 4 h): 52.3%
- Cell binding fraction (C4-2 cells; kept in ^224Ra solution 24 h (about 1.8 Gy)): 48.16%
- Cell binding fraction (C4-2 cells; kept in ^224Ra solution 48 h (about 3.3 Gy)): 37.18%
- Average tumor-to-kidney ratio ([3]; 1-hour point after administration): 0.40
- Tumor-to-kidney ratio ([3]; 4-hour timepoint): 1.7
- Uptake ratio to ^212Pb-PSMA-617, blood [3, 4]: 1.21
- Uptake ratio to ^212Pb-PSMA-617, kidneys [3, 4]: 0.20
- Uptake ratio to ^212Pb-PSMA-617, liver [3, 4]: 2.67
- Uptake ratio to ^212Pb-PSMA-617, spleen [3, 4]: 0.71
- Uptake ratio to ^212Pb-PSMA-617, tumor ([3]; 4 h after i.v. injection, ^224Ra/^212Pb solution, about 0.2 nmol ligand per mouse): 1.35
- Kidney uptake (average) ([3]; 4 hours after i.v. injection): 8.1 % ID/g
- Tumor uptake (average) ([3]; 4 hours after i.v. injection): 13.9 % ID/g

From patent US10377778B2, “Lead and thorium compounds” (Sciencons AS, priority 2017, dated 2019)
